12 molecules from patent publication US20260356856A1, “KRAS G12S AND G12C INHIBITORS” (MIRATI THERAPEUTICS, INC., priority 2023, published 2026) can be followed below.

Bounds are passed on as bounds.

The target of assay [1] is T1, KRas-mediated phosphorylation of ERK in A549 cells (Homo sapiens, UniProt P01116, G12S).
T1 construct: pERK HTRF read-out
Description: Inhibition of KRas-mediated phosphorylation of ERK (HTRF), A549 cells. The assay is classed as cell-based. Particulars: HTRF pERK, 3 h incubation. In general terms: Time-resolved FRET reads energy transfer from a long-lived donor to a nearby acceptor.

Assay [2] addresses T2, KRas-mediated phosphorylation of ERK in MKN1 cells (Homo sapiens, UniProt P01116).
T2 construct: pERK HTRF read-out
In words: Inhibition of KRas-mediated phosphorylation of ERK (HTRF), MKN1 cells. The format is cell-based. The settings on record: MKN1 cells (KRas WT); HTRF pERK; 3 h incubation. How it is done:
Inhibition of KRas Phosphorylation of ERK (HTRF) by Exemplary Compounds of Formula (Ia) or (Ib)
Cisbio HTRF Advanced pERK Assay Catalog #64AERPEH • Cells: MKN1, PSN1 • Procedure: • 1. Day 1: Seed 6,000 cells/well −25 μl/well in 384-well white solid bottom plate; RPM1_10% FBS. Incubate overnight at 37 °C/5% CO2. • 2.

The target in assay [3] is T3, KRas-mediated phosphorylation of ERK in H358 cells (Homo sapiens, UniProt P01116, G12C).
T3 construct: pERK HTRF read-out
In words: Inhibition of KRas-mediated phosphorylation of ERK (HTRF), H358 cells. Particulars: HTRF pERK, 3 h incubation. The assay is classed as cell-based.

The target of the next assay is T4, KRas WT (Homo sapiens, UniProt P01116).
T4 construct: Biotinylated KRas (corresponding to amino acids 1-169, produced at Accelegan Inc.); biotin (biotinylated); purchased Accelegan Inc
In words: KRas binding assay, TR-FRET displacement of Cy5 labelled tracer. The settings on record: 60-minute incubation at room temperature, 1% DMSO, pH 7.5. In a few lines:
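TR-FRET tracer-displacement readout after 60 min at room temperature, using KRas residues 1-169 (biotinylated) with terbium streptavidin and a Cy5 tracer. Buffer: 50 mM HEPES pH 7.5, 5 mM MgCl2, 0.005% Tween-20, 1 mM DTT, 1% DMSO final. IC50 from 4-parameter fit of POC data.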

The target in another assay is T5, KRas G12C (Homo sapiens, UniProt P01116, G12C).
T5 construct: Biotinylated KRas (corresponding to amino acids 1-169, produced at Accelegan Inc.); biotin (biotinylated); purchased Accelegan Inc
Described as above. The settings on record: 60-minute incubation at room temperature, 1% DMSO, pH 7.5. In a few lines: (§1)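 Truncated KRas (1-169), biotinylated, Tb-streptavidin donor; one-hour room-temperature incubation; IC50 by four-parameter curve fitting.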

A further assay deals with T6, KRas G12S (Homo sapiens, UniProt P01116, G12S).
T6 construct: Biotinylated KRas (corresponding to amino acids 1-169, produced at Accelegan Inc.); biotin (biotinylated); purchased Accelegan Inc
Described as above. Particulars: 60-minute incubation at room temperature, 1% DMSO, pH 7.5. In a few lines: as §1

T2 sequence (P01116 1-188 isoform P01116-2): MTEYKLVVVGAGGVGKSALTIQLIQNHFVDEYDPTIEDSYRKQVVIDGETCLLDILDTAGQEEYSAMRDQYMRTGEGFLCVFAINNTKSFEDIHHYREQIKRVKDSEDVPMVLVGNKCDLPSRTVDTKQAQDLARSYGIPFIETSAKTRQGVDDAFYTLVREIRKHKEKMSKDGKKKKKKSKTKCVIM
T3 sequence (P01116 1-188 isoform P01116-2 G12C): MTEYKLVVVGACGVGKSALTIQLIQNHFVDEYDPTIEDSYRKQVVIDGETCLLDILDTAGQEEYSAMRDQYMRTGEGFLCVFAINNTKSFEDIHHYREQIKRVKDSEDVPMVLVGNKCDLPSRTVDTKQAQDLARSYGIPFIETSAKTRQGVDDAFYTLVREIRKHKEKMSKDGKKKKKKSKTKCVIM
T4 sequence (P01116 1-169 isoform P01116-2): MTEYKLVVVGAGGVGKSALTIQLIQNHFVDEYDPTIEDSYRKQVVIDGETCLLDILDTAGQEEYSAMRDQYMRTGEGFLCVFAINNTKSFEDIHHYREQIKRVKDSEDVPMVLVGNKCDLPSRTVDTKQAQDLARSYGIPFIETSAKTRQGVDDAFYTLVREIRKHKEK
T1 sequence (P01116 1-188 isoform P01116-2 G12S): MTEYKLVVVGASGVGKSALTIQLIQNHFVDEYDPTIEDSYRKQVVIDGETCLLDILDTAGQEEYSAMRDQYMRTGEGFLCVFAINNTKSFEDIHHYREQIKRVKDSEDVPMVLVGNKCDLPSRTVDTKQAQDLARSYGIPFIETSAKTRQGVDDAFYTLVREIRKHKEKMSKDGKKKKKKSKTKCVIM
T6 sequence (P01116 1-169 isoform P01116-2 G12S): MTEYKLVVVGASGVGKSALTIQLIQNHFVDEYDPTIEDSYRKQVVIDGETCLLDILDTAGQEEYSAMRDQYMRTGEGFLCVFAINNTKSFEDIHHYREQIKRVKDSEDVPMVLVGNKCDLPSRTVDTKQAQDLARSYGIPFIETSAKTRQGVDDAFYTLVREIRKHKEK
T5 sequence (P01116 1-169 isoform P01116-2 G12C): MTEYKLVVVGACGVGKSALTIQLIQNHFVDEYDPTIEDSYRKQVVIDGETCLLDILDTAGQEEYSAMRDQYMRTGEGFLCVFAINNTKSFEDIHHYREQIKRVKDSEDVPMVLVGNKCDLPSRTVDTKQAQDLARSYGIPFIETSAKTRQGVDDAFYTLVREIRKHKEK

By IC50 is commonly meant the point on the concentration scale where inhibition reaches its midpoint. Read a low IC50 as greater potency in that assay. For the molecule `CCc1c(F)ccc2cc(O)cc(-c3ncc4c(N5CCC(C(=O)n6ccc(C(C)C)n6)CC5)nc(OC[C@@]56CCCN5C[C@H](F)C6)nc4c3F)c12` [Example 76, (1-(7-(8-ethyl-7-fluoro-3-hydroxynaphthalen-1-yl)-8-fluoro-2-(((2R,7aS)-2-fluorotetrahydro-1H-pyrrolizin-7a(5H)-yl)methoxy)pyrido[4,3-d]pyrimidin-4-yl)piperidin-4-yl)(3-isopropyl-1H-pyrazol-1-yl)methanone], the 50% inhibitory concentration (IC50) in assay [1] came to 223 nM; in assay [2], 2060 nM; in assay [3], 4720 nM; on KRas WT, 166 nM; on KRas G12C, 124 nM; at KRas G12S it was 150 nM.

For the molecule `CCc1c(F)ccc2cc(O)cc(-c3ncc4c(N5CCOCC(C(=O)n6ccc(C)n6)C5)nc(OC[C@@]56CCCN5C[C@H](F)C6)nc4c3F)c12` (stereo partly drawn) [Example 77, (4-(7-(8-ethyl-7-fluoro-3-hydroxynaphthalen-1-yl)-8-fluoro-2-(((2R,7aS)-2-fluorotetrahydro-1H-pyrrolizin-7a(5H)-yl)methoxy)pyrido[4,3-d]pyrimidin-4-yl)-1,4-oxazepan-6-yl)(3-methyl-1H-pyrazol-1-yl)methanone], the IC50 in assay [1] is greater than 10000 nM; in assay [2], 4560 nM; in assay [3], 1360 nM; at KRas WT, 161 nM; at KRas G12C, 159 nM; on KRas G12S, 87 nM.

In the case of `CCc1c(F)ccc2cc(O)cc(-c3ncc4c(N5CC[C@@H](C(=O)n6ccc(C)n6)[C@@H](C)C5)nc(OC[C@@]56CCCN5C[C@H](F)C6)nc4c3F)c12` [Example 79, ((3R,4R)-1-(7-(8-ethyl-7-fluoro-3-hydroxynaphthalen-1-yl)-8-fluoro-2-(((2R,7aS)-2-fluorotetrahydro-1H-pyrrolizin-7a(5H)-yl)methoxy)pyrido[4,3-d]pyrimidin-4-yl)-3-methylpiperidin-4-yl)(3-methyl-1H-pyrazol-1-yl)methanone], the IC50 stood at 785 nM in assay [1]; 1450 nM in assay [2]; 23 nM in assay [3]; 246 nM on KRas WT; 26 nM on KRas G12C; 594 nM at KRas G12S.

With `CCc1c(F)ccc2cc(O)cc(-c3ncc4c(N5CCC(C(=O)n6cc(C(C)C)cn6)CC5)nc(OC[C@@]56CCCN5C[C@H](F)C6)nc4c3F)c12` [Example 80, (1-(7-(8-ethyl-7-fluoro-3-hydroxynaphthalen-1-yl)-8-fluoro-2-(((2R,7aS)-2-fluorotetrahydro-1H-pyrrolizin-7a(5H)-yl)methoxy)pyrido[4,3-d]pyrimidin-4-yl)piperidin-4-yl)(4-isopropyl-1H-pyrazol-1-yl)methanone], the 50% inhibitory concentration (IC50) in assay [1] was determined as 431 nM; in assay [2], 3380 nM; in assay [3], 9700 nM; at KRas WT, 432 nM; at KRas G12C it was 307 nM; at KRas G12S it was 197 nM.

Regarding `CCc1c(F)ccc2cc(O)cc(-c3ncc4c(N5C[C@@H](C)N(C(=O)n6ccc(C)n6)[C@@H](C)C5)nc(OC[C@@]56CCCN5C[C@H](F)C6)nc4c3F)c12` [Example 81, ((2S,6R)-4-(7-(8-ethyl-7-fluoro-3-hydroxynaphthalen-1-yl)-8-fluoro-2-(((2R,7aS)-2-fluorotetrahydro-1H-pyrrolizin-7a(5H)-yl)methoxy)pyrido[4,3-d]pyrimidin-4-yl)-2,6-dimethylpiperazin-1-yl)(3-methyl-1H-pyrazol-1-yl)methanone], the IC50 in assay [1] is 3770 nM; in assay [2] it was 192 nM; in assay [3], 2160 nM; at KRas WT it was 32 nM; on KRas G12C, 165 nM; at KRas G12S, 93 nM.

As to `CCc1c(F)ccc2cc(O)cc(-c3ncc4c(N5CCN(C(=O)n6ccc(C)n6)C(C)C5)nc(OC[C@@]56CCCN5C[C@H](F)C6)nc4c3F)c12` (stereo partly drawn) [Example 82, (4-(7-(8-ethyl-7-fluoro-3-hydroxynaphthalen-1-yl)-8-fluoro-2-(((2R,7aS)-2-fluorotetrahydro-1H-pyrrolizin-7a(5H)-yl)methoxy)pyrido[4,3-d]pyrimidin-4-yl)-2-methylpiperazin-1-yl)(3-methyl-1H-pyrazol-1-yl)methanone], the half-maximal inhibitory concentration (IC50) in assay [1] came to 3410 nM; in assay [2] it was 179 nM; in assay [3], 499 nM; at KRas WT it was 23 nM; on KRas G12C, 34 nM; on KRas G12S, 28 nM.

For the molecule `CCc1c(F)ccc2cc(O)cc(-c3ncc4c(N5CCC(C)(C(=O)n6ccc(C)n6)CC5)nc(OC[C@@]56CCCN5C[C@H](F)C6)nc4c3F)c12` [Example 83, (1-(7-(8-ethyl-7-fluoro-3-hydroxynaphthalen-1-yl)-8-fluoro-2-(((2R,7aS)-2-fluorotetrahydro-1H-pyrrolizin-7a(5H)-yl)methoxy)pyrido[4,3-d]pyrimidin-4-yl)-4-methylpiperidin-4-yl)(3-methyl-1H-pyrazol-1-yl)methanone], the IC50 in assay [1] worked out at 1170 nM; in assay [2] it was 2990 nM; in assay [3], 1410 nM; on KRas WT, 790 nM; on KRas G12C, 107 nM; at KRas G12S it was 402 nM.

For the molecule `CCc1c(F)ccc2cc(O)cc(-c3ncc4c(N5CC(CC(=O)n6ccc(C)n6)C5)nc(OC[C@@]56CCCN5C[C@H](F)C6)nc4c3F)c12` [Example 84, 2-(1-(7-(8-ethyl-7-fluoro-3-hydroxynaphthalen-1-yl)-8-fluoro-2-(((2R,7aS)-2-fluorotetrahydro-1H-pyrrolizin-7a(5H)-yl)methoxy)pyrido[4,3-d]pyrimidin-4-yl)azetidin-3-yl)-1-(3-methyl-1H-pyrazol-1-yl) ethan-1-one], the IC50 in assay [1] turned out to be 55 nM; in assay [2] it was 6390 nM; in assay [3], 7600 nM; on KRas WT, 154 nM; on KRas G12C, 53 nM; on KRas G12S, 7 nM.

Consider `CCc1c(F)ccc2cc(O)cc(-c3ncc4c(N5CC[C@H](C(=O)n6ccc(C)n6)[C@H](C)C5)nc(OC[C@@]56CCCN5C[C@H](F)C6)nc4c3F)c12` [Example 85, ((3S,4S)-1-(7-(8-ethyl-7-fluoro-3-hydroxynaphthalen-1-yl)-8-fluoro-2-(((2R,7aS)-2-fluorotetrahydro-1H-pyrrolizin-7a(5H)-yl)methoxy)pyrido[4,3-d]pyrimidin-4-yl)-3-methylpiperidin-4-yl)(3-methyl-1H-pyrazol-1-yl)methanone], for which the IC50 amounted to 883 nM in assay [1]; 48 nM in assay [2]; 458 nM in assay [3]; 8 nM at KRas WT; 28 nM on KRas G12C; 17 nM on KRas G12S.

For `CCc1c(F)ccc2cc(O)cc(-c3ncc4c(N(C)CCCC(=O)n5ccc(C)n5)nc(OC[C@@]56CCCN5C[C@H](F)C6)nc4c3F)c12` [Example 110, 4-((7-(8-ethyl-7-fluoro-3-hydroxynaphthalen-1-yl)-8-fluoro-2-(((2R,7aS)-2-fluorotetrahydro-1H-pyrrolizin-7a(5H)-yl)methoxy)pyrido[4,3-d]pyrimidin-4-yl)(methyl)amino)-1-(3-methyl-1H-pyrazol-1-yl) butan-1-one], the concentration for half-maximal inhibition (IC50) in assay [1] was 12 nM; in assay [2], 1320 nM; in assay [3] it was 91 nM; at KRas WT it was 58 nM; at KRas G12C it was less than 2 nM; at KRas G12S, less than 2 nM.

Consider `CCc1c(F)ccc2cc(O)cc(-c3ncc4c(N(C)CCC(=O)n5ccc(C)n5)nc(OC[C@@]56CCCN5C[C@H](F)C6)nc4c3F)c12` [Example 121, 3-((7-(8-ethyl-7-fluoro-3-hydroxynaphthalen-1-yl)-8-fluoro-2-(((2R,7aS)-2-fluorotetrahydro-1H-pyrrolizin-7a(5H)-yl)methoxy)pyrido[4,3-d]pyrimidin-4-yl)(methyl)amino)-1-(3-methyl-1H-pyrazol-1-yl) propan-1-one], for which the IC50 in assay [1] stood at 243 nM; in assay [2], 875 nM; in assay [3] it was 382 nM; at KRas WT it was 30 nM; on KRas G12C, 16 nM; on KRas G12S, 16 nM.

For `CCc1c(F)ccc2cc(O)cc(-c3ncc4c(N5CCN(C(=O)n6ccc(C)n6)C(CF)C5)nc(OC[C@@]56CCCN5C[C@H](F)C6)nc4c3F)c12` (stereo partly drawn) [Example 123, (4-(7-(8-ethyl-7-fluoro-3-hydroxynaphthalen-1-yl)-8-fluoro-2-(((2R,7aS)-2-fluorotetrahydro-1H-pyrrolizin-7a(5H)-yl)methoxy)pyrido[4,3-d]pyrimidin-4-yl)-2-(fluoromethyl)piperazin-1-yl)(3-methyl-1H-pyrazol-1-yl)methanone], the IC50 in assay [1] amounted to 2740 nM; in assay [2], 219 nM; in assay [3] it was 264 nM; on KRas WT it was 30 nM; on KRas G12C, 42 nM; on KRas G12S, 68 nM.
